Results: US20240360146A1, “BRUTON'S TYROSINE KINASE AND MUTANT DEGRADER, COMPOSITION AND APPLICATION THEREOF” (HANGZHOU HEALZEN THERAPEUTICS CO., LTD., priority 2021, published 2024)

Assays:
Assay type in all cases: cell-based
Mino cells = assay: Inhibitory activity on Mino cell proliferation (MTS); conditions: Homo sapiens, 168 h incubation
Method: (§1) The anti-tumor efficacy of the compounds was tested by measuring their inhibitory effects on OCI-LY10 and Mino cell proliferation. OCI-LY10 and Mino cells were cultured in RPMI-1640 medium containing 10% fetal calf serum. OCI-LY10 and Mino cells were digested, inoculated in a 96-well plate at a cell concentration of 10000 cells/well, and incubated overnight at 37° C., 5% CO2. Compounds of different concentrations (1000 nM, 4-fold dilution, 8 points) were added to the 96-well plate and incubated for 72 h (LY10) or 168 h (Mino) at 37° C. and 5% CO2, and then 20 uL of MTS was added to each well. After incubation for 2 h, 25 μl of 10% SDS was added to each well to terminate the reaction. The absorbance at 490 nm and 650 nm were measured with a microplate reader. IC50 was calculated using GraphPad Prism 5.0.

BTK = biological target: T1, BTK (Homo sapiens, UniProt Q06187); assay: BTK degradation activity test in Mino cells; conditions: 16 h incubation, Western blot or Elisa
T1 construct: endogenous in cells; host or cells: Mino cells
T1 sequence (Q06187 whole entry): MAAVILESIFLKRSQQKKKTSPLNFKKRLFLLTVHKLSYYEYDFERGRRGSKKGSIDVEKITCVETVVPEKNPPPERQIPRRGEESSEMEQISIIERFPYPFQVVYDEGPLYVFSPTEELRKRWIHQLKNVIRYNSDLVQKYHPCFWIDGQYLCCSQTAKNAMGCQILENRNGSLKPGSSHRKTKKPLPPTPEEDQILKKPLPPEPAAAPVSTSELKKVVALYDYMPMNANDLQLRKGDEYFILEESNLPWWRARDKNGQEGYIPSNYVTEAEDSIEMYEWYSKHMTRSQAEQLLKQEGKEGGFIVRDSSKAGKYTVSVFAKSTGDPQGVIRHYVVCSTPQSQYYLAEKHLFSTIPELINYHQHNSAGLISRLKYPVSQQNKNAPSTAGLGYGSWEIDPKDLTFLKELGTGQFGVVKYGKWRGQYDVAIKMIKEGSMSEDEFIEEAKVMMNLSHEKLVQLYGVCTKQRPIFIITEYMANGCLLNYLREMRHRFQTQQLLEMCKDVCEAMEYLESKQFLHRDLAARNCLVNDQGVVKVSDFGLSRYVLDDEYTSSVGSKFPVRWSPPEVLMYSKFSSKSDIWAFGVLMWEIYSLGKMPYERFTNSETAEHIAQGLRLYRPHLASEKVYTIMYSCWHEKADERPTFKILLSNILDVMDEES
Outline: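 DC50 derived by curve fitting of BTK degradation rates versus untreated control across compound concentrations. Mino cells were exposed for 16 h; BTK levels in lysates, normalised via BCA protein, measured by Western blot or ELISA.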

OCI-LY10 cells = assay: Inhibitory activity on OCI-LY10 cell proliferation (MTS); conditions: Homo sapiens, 72 h
Method: as §1

Structure (SMILES)	IC50 (Mino cells)	DC50 (BTK)	IC50 (OCI-LY10 cells)
CN1CCN([C@@H]2CCCN(c3ncc(C(N)=O)c(Nc4ccc(N5CCN(CC6CCN(c7ccc8c(c7)C(=O)N(C7CCC(=O)NC7=O)C8=O)C6)CC5)cc4)n3)C2)C1=O (stereo partly drawn) [Compound 115, 4-((4-(4-((1-(2-(2,6-dioxopiperidin-3-yl)-1,3-dioxoisoindolin-5-yl)pyrrolidin-3-yl)methyl)piperazin-1-yl)phenyl)amino)-2-((R)-3-(3-methyl-2-oxoimidazolin-1-yl)piperidin-1-yl)pyrimidin-5-carboxamide]	5.97 nM	< 1 nM	0.59 nM
CN1CCN([C@@H]2CCCN(c3ncc(C(N)=O)c(Nc4ccc(C5CCN(CC6CCN(c7ccc8c(c7)C(=O)N(C7CCC(=O)NC7=O)C8=O)C6)CC5)cc4)n3)C2)C1=O (stereo partly drawn) [Compound 116, 4-((4-(1-((1-(2-(2,6-dioxopiperidin-3-yl)-1,3-dioxoisoindolin-5-yl)pyrrolidin-3-yl)methyl)piperidin-4-yl)phenyl)amino)-2-((R)-3-(3-methyl-2-oxoimidazolin-1-yl)piperidin-1-yl)pyrimidin-5-carboxamide]	1.34 nM	< 1 nM	0.11 nM
CN1CCN([C@@H]2CCCN(c3ncc(C(N)=O)c(Nc4ccc(C5CCN(CC6CCN(c7ccc8c(c7)C(=O)N(C7CCC(=O)NC7=O)C8=O)CC6)CC5)cc4)n3)C2)C1=O (stereo partly drawn) [Compound 117, 4-((4-(1-((1-(2-(2,6-dioxopiperidin-3-yl)-1,3-dioxoisoindolin-5-yl)piperidin-4-yl)methyl)piperidin-4-yl)phenyl)amino)-2-((R)-3-(3-methyl-2-oxoimidazolin-1-yl)piperidin-1-yl)pyrimidin-5-carboxamide]	3.08 nM	< 1 nM	0.33 nM
CN1CCN(C2CC3CC2N(c2cnc(C(N)=O)c(Nc4ccc(C5CCN(CC6CCN(c7ccc8c(c7)C(=O)N(C7CCC(=O)NC7=O)C8=O)CC6)CC5)cc4)n2)C3)C1=O (stereo not drawn) [Compound 118, 3-((4-(1-((1-(2-(2,6-dioxopiperidin-3-yl)-1,3-dioxoisoindolin-5-yl)piperidin-4-yl)methyl)piperidin-4-yl)phenyl)amino)-5-(6-(3-methyl-2-oxoimidazolin-1-yl)-2-azabicyclo[2.2.1]heptan-2-yl)pyrazin-2-carboxamide]	10.7 nM	< 1 nM	0.27 nM
CN1CCN([C@@H]2CCCN(c3nnc(C(N)=O)c(Nc4ccc(N5CCC(CN6CCN(c7cc8c(cc7F)C(=O)N(C7CCC(=O)NC7=O)C8=O)CC6)CC5)cc4)n3)C2)C1=O (stereo partly drawn) [Compound 125, 5-((4-(4-((4-(2-(2,6-dioxopiperidin-3-yl)-6-fluoro-1,3-dioxoisoindolin-5-yl)piperazin-1-yl)methyl)piperidin-1-yl)phenyl)amino)-3-((R)-3-(3-methyl-2-oxoimidazolin-1-yl)piperidin-1-yl)-1,2,4-triazin-6-carboxamide]	–	< 1 nM	1.83 nM
CN1CCN([C@@H]2CCCN(c3nnc(C(N)=O)c(Nc4ccc(N5CCN(CC6CCN(c7ccc(N8CCC(=O)NC8=O)c(F)c7F)CC6)CC5)c(F)c4)n3)C2)C1=O [Compound 185, (R)-5-((4-(4-((1-(4-(2,4-dioxotetrahydropyrimidin-1(2H)-yl)-2,3-difluorophenyl)piperidin-4-yl)methyl)piperazin-1-yl)-3-fluorophenyl)amino)-3-(3-(3-methyl-2-oxoimidazolidin-1-yl)piperidin-1-yl)-1,2,4-triazin-6-carboxamide]	–	< 1 nM	1.36 nM
Cc1cc(N2CCC(CN3CCN(c4ccc(Nc5nc(N6CCC[C@@H](N7CCN(C)C7=O)C6)nnc5C(N)=O)cc4F)CC3)CC2)ccc1NC1CCC(=O)NC1=O (stereo partly drawn) [Compound 207, 5-((4-(4-((1-(4-((2,6-dioxopiperidin-3-yl)amino)-3-methylphenyl)piperidin-4-yl)methyl)piperazin-1-yl)-3-fluorophenyl)amino)-3-((R)-3-(3-methyl-2-oxoimidazolidin-1-yl)piperidin-1-yl)-1,2,4-triazin-6-carboxamide]	–	< 1 nM	0.23 nM
CN1CCN([C@@H]2CCCN(c3nnc(C(N)=O)c(Nc4ccc(N5CCN(CC6CCN(c7ccc8c(c7)n(C)c(=O)n8C7CCC(=O)NC7=O)CC6)CC5)c(F)c4)n3)C2)C1=O (stereo partly drawn) [Compound 219, 5-((4-(4-((1-(1-(2,6-dioxopiperidin-3-yl)-3-methyl-2-oxo-2,3-dihydro-H-benzo[d]imidazol-5-yl)piperidin-4-yl)methyl)piperazin-1-yl)-3-fluorophenyl)amino)-3-((R)-3-(3-methyl-2-oxoimidazolidin-1-yl)piperidin-1-yl)-1,2,4-triazin-6-carboxamide]	2.74 nM	< 1 nM	–
CN1CCN([C@@H]2CCCN(c3nnc(C(N)=O)c(Nc4ccc(N5CCN(CC6CCN(c7ccc8c9c(oc8c7)C(=O)N(C7CCC(=O)NC7=O)C9)CC6)CC5)c(F)c4)n3)C2)C1=O (stereo partly drawn) [Compound 223, 5-((4-(4-((1-(2-(2,6-dioxopiperidin-3-yl)-3-oxo-2,3-dihydro-H-benzofuro[2,3-c]pyrrol-6-yl)piperidin-4-yl)methyl)piperazin-1-yl)-3-fluorophenyl)amino)-3-((R)-3-(3-methyl-2-oxoimidazolidin-1-yl)piperidin-1-yl)-1,2,4-triazin-6-carboxamide]	–	< 1 nM	2.55 nM
CN1CCN([C@@H]2CCCN(c3nnc(C(N)=O)c(Nc4ccc(N5CCN(CC#Cc6ccc(C(=O)NC7CCC(=O)NC7=O)nc6)CC5)c(F)c4)n3)C2)C1=O (stereo partly drawn) [Compound 224, 5-((4-(4-(3-(6-((2,6-dioxopiperidin-3-yl)carbamoyl)pyridin-3-yl)propan-2-yn-1-yl)piperazin-1-yl)-3-fluorophenyl)amino)-3-((R)-3-(3-methyl-2-oxoimidazolidin-1-yl)piperidin-1-yl)-1,2,4-triazin-6-carboxamide]	–	< 1 nM	2.25 nM
CN1CCN([C@@H]2CCCN(c3nnc(C(N)=O)c(Nc4ccc(N5CCN(CC#Cc6ccc7c(c6)n(C)c(=O)n7C6CCC(=O)NC6=O)CC5)c(F)c4)n3)C2)C1=O (stereo partly drawn) [Compound 227, 5-((4-(4-(3-(1-(2,6-dioxopiperidin-3-yl)-3-methyl-2-oxo-2,3-dihydro-1H-benzo[d]imidazol-5-yl)propan-2-yn-1-yl)piperazin-1-yl)-3-fluorophenyl)amino)-3-((R)-3-(3-methyl-2-oxoimidazolidin-1-yl)piperidin-1-yl)-1,2,4-triazin-6-carboxamide]	–	< 1 nM	0.27 nM
CN1CCN([C@@H]2CCCN(c3nnc(C(N)=O)c(Nc4ccc(C5CCN(CC6CCN(c7ccc(N8CCC(=O)NC8=O)cc7)CC6)CC5)c(F)c4)n3)C2)C1=O [Compound 234, (R)-5-((4-(1-((1-(4-(2,4-dioxotetrahydropyrimidin-1(2H)-yl)phenyl)piperidin-4-yl)methyl)piperidin-4-yl)-3-fluorophenyl)amino)-3-(3-(3-methyl-2-oxoimidazolidin-1-yl)piperidin-1-yl)-1,2,4-triazin-6-carboxamide]	–	< 1 nM	1.78 nM
Cc1cc(N2CCC(CN3CCC(c4ccc(Nc5nc(N6CCC[C@@H](N7CCN(C)C7=O)C6)nnc5C(N)=O)cc4)CC3)CC2)ccc1N1CCC(=O)NC1=O [Compound 236, (R)-5-((4-(1-((1-(4-(2,4-dioxotetrahydropyrimidin-1(2H)-yl)-3-methylphenyl)piperidin-4-yl)methyl)piperidin-4-yl)phenyl)amino)-3-(3-(3-methyl-2-oxoimidazolidin-1-yl)piperidin-1-yl)-1,2,4-triazin-6-carboxamide]	–	< 1 nM	0.63 nM
